Results on 46 molecules are retold here after patent publication US8999976B2, “Modulators of cystic fibrosis transmembrane conductance regulator” (Vertex Pharmaceuticals Incorporated, priority 2008, dated 2015).

The target of this assay is T1, ΔF508-CFTR (Homo sapiens, UniProt P13569, DEL508-508).
T1 construct: expressed in transfected cells
The assay is described as follows: Membrane potential optical assay for potentiators of ΔF508-CFTR (FLIPR III, voltage sensing dyes). The class given is cell-based. The conditions noted are these: for Emax: NIH3T3, 100% efficacy is the maximum response obtained with 4-methyl-2-(5-phenyl-1H-pyrazol-3-yl)phenol, ΔF508 CFTR NIH 3T3 cells; for EC50: temperature-corrected ΔF508 CFTR NIH 3T3 cells, forskolin activation. The source says:
The assay utilizes fluorescent voltage sensing dyes to measure changes in membrane potential using a fluorescent plate reader (e.g., FLIPR III, Molecular Devices, Inc.) as a readout for increase in functional ΔF508-CFTR in NIH 3T3 cells.
To identify potentiators of ΔF508-CFTR, a double-addition HTS assay format was developed. This HTS assay utilizes fluorescent voltage sensing dyes to measure changes in membrane potential on the FLIPR III as a measurement for increase in gating (conductance) of ΔF508 CFTR in temperature-corrected ΔF508 CFTR NIH 3T3 cells.
Solutions • Bath Solution #1: (in mM) NaCl 160, KCl 4.5, CaCl2 2, MgCl2 1, HEPES 10, pH 7.4 with NaOH. • Chloride-Free Bath Solution: Chloride Salts in Bath Solution #1 are Substituted with Gluconate Salts.
NIH3T3 mouse fibroblasts stably expressing ΔF508-CFTR are used for optical measurements of membrane potential. The cells are maintained at 37° C. in 5% CO2 and 90% humidity in Dulbecco's modified Eagle's medium supplemented with 2 mM glutamine, 10% fetal bovine serum, 1×NEAA, β-ME, 1×pen/strep, and 25 mM HEPES in 175 cm^2 culture flasks. For all optical assays, the cells were seeded at ˜20,000/well in 384-well matrigel-coated plates and cultured for 2 hrs at 37° C. before culturing at 27° C. for 24 hrs. for the potentiator assay. For the correction assays, the cells are cultured at 27° C. or 37° C. with and without compounds for 16-24 hours. Electrophysiological Assays for assaying ΔF508-CFTR modulation properties of compounds.

Each structure is given as a SMILES string.

T1 sequence (P13569 with tags, fused parts or gaps DEL508-508): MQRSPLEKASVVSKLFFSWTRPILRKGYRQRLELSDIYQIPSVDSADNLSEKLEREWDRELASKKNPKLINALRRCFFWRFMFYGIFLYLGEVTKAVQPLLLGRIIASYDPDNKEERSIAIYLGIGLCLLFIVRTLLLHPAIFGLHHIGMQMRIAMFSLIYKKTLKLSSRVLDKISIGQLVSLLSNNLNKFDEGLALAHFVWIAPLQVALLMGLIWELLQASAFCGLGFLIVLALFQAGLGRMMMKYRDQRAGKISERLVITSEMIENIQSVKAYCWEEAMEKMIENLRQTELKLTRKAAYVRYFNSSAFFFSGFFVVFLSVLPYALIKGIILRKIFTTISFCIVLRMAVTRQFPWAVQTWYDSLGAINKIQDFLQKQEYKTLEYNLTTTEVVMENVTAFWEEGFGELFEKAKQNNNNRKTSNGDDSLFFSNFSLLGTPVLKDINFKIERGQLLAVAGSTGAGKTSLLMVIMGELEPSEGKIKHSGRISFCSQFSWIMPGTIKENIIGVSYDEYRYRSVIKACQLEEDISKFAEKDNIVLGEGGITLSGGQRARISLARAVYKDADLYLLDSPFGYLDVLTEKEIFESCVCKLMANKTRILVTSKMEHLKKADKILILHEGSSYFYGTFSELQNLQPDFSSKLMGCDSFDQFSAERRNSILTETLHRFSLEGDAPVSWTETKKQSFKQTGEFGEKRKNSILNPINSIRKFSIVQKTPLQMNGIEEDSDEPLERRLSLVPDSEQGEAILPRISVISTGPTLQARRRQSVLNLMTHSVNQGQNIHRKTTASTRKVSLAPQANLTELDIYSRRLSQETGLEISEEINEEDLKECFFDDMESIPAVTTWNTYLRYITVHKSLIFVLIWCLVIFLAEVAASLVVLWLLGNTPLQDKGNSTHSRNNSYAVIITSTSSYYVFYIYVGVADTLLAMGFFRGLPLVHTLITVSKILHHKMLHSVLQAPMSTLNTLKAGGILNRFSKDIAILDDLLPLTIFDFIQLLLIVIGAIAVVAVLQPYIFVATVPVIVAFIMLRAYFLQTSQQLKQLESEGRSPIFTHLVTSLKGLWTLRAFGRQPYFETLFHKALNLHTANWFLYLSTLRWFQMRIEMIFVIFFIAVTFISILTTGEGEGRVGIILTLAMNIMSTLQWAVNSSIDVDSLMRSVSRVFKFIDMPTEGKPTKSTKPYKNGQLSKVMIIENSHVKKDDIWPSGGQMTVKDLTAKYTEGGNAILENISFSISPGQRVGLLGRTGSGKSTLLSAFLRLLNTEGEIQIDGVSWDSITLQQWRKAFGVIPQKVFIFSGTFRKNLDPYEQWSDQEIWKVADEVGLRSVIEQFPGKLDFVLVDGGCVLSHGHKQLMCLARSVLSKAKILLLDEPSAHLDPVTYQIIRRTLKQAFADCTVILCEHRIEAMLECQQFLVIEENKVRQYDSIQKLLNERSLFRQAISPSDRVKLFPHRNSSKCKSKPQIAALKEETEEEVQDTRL

In the case of `O=C(O)Cc1cc(C2CCCC2)c(O)cc1NC(=O)C1CNc2cc(OC(F)(F)F)ccc2O1` (centres unmarked) [Compound 24], the Emax was above 100% and the EC50 is below 5 µM.

On to `O=C(Nc1cc(O)c(C2CCCC2)cc1CN1CCCCC1)C1CNc2ccccc2O1` (centres unmarked) [Compound 3], for which the Emax is 25 to 100% and the EC50 was below 5 µM.

With `CC(C)(C)c1cc(C2CCCC2)c(O)cc1NC(=O)[C@@H]1CNc2cc(C#N)ccc2O1` [Compound 59], the Emax was in the range of 25 to 100% and the EC50 was below 5 µM.

As to `O=C(Nc1cc(O)c(C2CCCC2)cc1C(F)(F)F)[C@@H]1CNc2cc(F)ccc2O1` [Compound 76], the Emax was in the range of 25 to 100% and the EC50 is below 5 µM.

On to `Cc1ccc(NC(=O)C2CNc3cc(C)ccc3O2)c(C#CCN(C)C)c1` (centres unmarked) [Compound 48], for which the maximal response (Emax) lay in the range of 25 to 100% and the EC50 was below 5 µM.

On to `Cc1cc(C)c(NC(=O)C2CNc3cc(OC(F)(F)F)ccc3O2)c(C#CCN(C)C)c1` (centres unmarked) [Compound 15], for which the Emax was 25 to 100% and the half-maximal effective concentration (EC50) is below 5 µM.

As to `CNCC#Cc1cc(C2CCCC2)c(O)cc1NC(=O)C1CNc2cc(OC(F)(F)F)ccc2O1` (centres unmarked) [Compound 98, N-(4-cyclopentyl-5-hydroxy-2-(3-(methylamino)prop-1-ynyl)phenyl)-6-(trifluoromethoxy)-3,4-dihydro-2H-benzo[b][1,4]oxazine-2-carboxamide], the Emax was in the range of 25 to 100% and the EC50 was below 5 µM.

On to `Cc1cc(C2CCCC2)c(O)cc1NC(=O)C1CNc2cc(C#N)ccc2O1` (centres unmarked) [Compound 74], for which the Emax is 25 to 100% and the EC50 was below 5 µM.

On to `N#Cc1cc(C2CCCC2)c(O)cc1NC(=O)[C@H]1CNc2ccc(F)cc2O1` [Compound 17], for which the Emax lay within 25 to 100% and the EC50 is below 5 µM.

Regarding `COC(=O)Cc1cc(C2CCCC2)c(O)cc1NC(=O)C1CNc2cc(OC(F)(F)F)ccc2O1` (centres unmarked) [Compound 75], the maximum response (Emax) was above 100% and the EC50 is below 5 µM.

For `Cc1ccc(NC(=O)C2CNc3cc(OC(F)(F)F)ccc3O2)c(C#CCN2CCCCC2)c1` (centres unmarked) [Compound 71], the maximal response (Emax) was in the range of 25 to 100% and the 50% effective concentration (EC50) is below 5 µM.

In the case of `CC1(c2cc(F)c(NC(=O)C3CNc4cc(F)ccc4O3)cc2O)CCCCC1` (centres unmarked) [Compound 18], the Emax was 25 to 100% and the EC50 was below 5 µM.

Turning to `CC(C)(C)c1cc(C(C)(C)C)c(NC(=O)C2CNc3cc(F)c(F)cc3O2)cc1O` (centres unmarked) [Compound 8], the Emax was in the range of 25 to 100% and the concentration giving a half-maximal response (EC50) was below 5 µM.

For the molecule `N#Cc1ccc2c(c1)NCC(C(=O)Nc1cc(O)c(C3CCCC3)cc1CN1CCNCC1)O2` (centres unmarked) [Compound 51, 6-cyano-N-(4-cyclopentyl-5-hydroxy-2-(piperazin-1-ylmethyl)phenyl)-3,4-dihydro-2H-benzo[b][1,4]oxazine-2-carboxamide], the Emax is 25 to 100% and the half-maximal effective concentration (EC50) was in the range of 5 to 20 µM.

With `COc1ccc2c(c1)NCC(C(=O)Nc1ccc(C(C)(C)C)c(O)c1)O2` (centres unmarked) [Compound 14], the Emax was below 25% and the EC50 was in the range of 5 to 20 µM.

As for `Cc1cc2c(cc1F)NCC(C(=O)Nc1cc(O)c(C(C)(C)C)cc1C(C)(C)C)O2` (centres unmarked) [Compound 6], the Emax is 25 to 100% and the EC50 was below 5 µM.

With `O=C(Nc1cc(O)c(C2CCCC2)cc1F)C1CNc2ccc(F)cc2O1` (centres unmarked) [Compound 61], the Emax fell in the range of 25 to 100% and the EC50 is below 5 µM.

For `Cc1cc2c(cc1F)NCC(C(=O)Nc1cc(O)c(C3CCCC3)cc1C#CCN(C)C)O2` (centres unmarked) [Compound 124], the Emax was in the range of 25 to 100% and the concentration giving a half-maximal response (EC50) was below 5 µM.

Take `O=C(Nc1cc(O)c(C2CCCC2)cc1C#CCN1CCCC1)C1CNc2cc(OC(F)(F)F)ccc2O1` (centres unmarked) [Compound 22]: the maximal effect (Emax) is above 100% and the EC50 is below 5 µM.

`CC1CCN(Cc2cc(C3CCCC3)c(O)cc2NC(=O)C2CNc3ccccc3O2)CC1` (centres unmarked) [Compound 46]: the Emax is above 100% and the EC50 is below 5 µM.

Regarding `Cc1cnc(NC(=O)C2CNc3cc(OC(F)(F)F)ccc3O2)c(C#CCN(C)C)c1` (centres unmarked) [Compound 41], the Emax was in the range of 25 to 100% and the EC50 is below 5 µM.

With `O=C(Nc1ccc(O)c(OC(F)(F)F)c1)C1CNc2ccc(F)cc2O1` (centres unmarked) [Compound 109], the Emax fell in the range of 25 to 100% and the EC50 lay within 5 to 20 µM.

For the molecule `CN(C)CC#Cc1cc(C2CCCC2)ccc1NC(=O)C1CNc2cc(C#N)ccc2O1` (centres unmarked) [Compound 110], the Emax was in the range of 25 to 100% and the EC50 is below 5 µM.

Consider `O=C(Nc1ccc(OC(F)(F)F)c(O)c1)C1CNc2ccc(F)cc2O1` (centres unmarked) [Compound 47], for which the Emax is 25 to 100% and the concentration giving a half-maximal response (EC50) was below 5 µM.

Consider `Cc1cc(C#CCN(C)C)c(NC(=O)C2CNc3cc(OC(F)(F)F)ccc3O2)cc1C` (centres unmarked) [Compound 127], for which the Emax is 25 to 100% and the half-maximal effective concentration (EC50) is below 5 µM.

With `O=C(O)CCc1cc(C2CCCC2)c(O)cc1NC(=O)C1CNc2cc(OC(F)(F)F)ccc2O1` (centres unmarked) [Compound 16], the Emax was in the range of 25 to 100% and the EC50 is below 5 µM.

Regarding `Cc1cc(C#CCN(C)C)c(NC(=O)C2CNc3ccccc3O2)cc1F` (centres unmarked) [Compound 36], the Emax was 25 to 100% and the 50% effective concentration (EC50) lay in the range of 5 to 20 µM.

As for `CN(C)CC#Cc1cc(C2CCCC2)c(O)cc1NC(=O)[C@@H]1CNc2cc(OC(F)(F)F)ccc2O1` [Compound 65], the Emax is above 100% and the EC50 was below 5 µM.

Turning to `CC(C)(C)c1cc(C2CCCC2)c(O)cc1NC(=O)[C@H]1CNc2cc(C#N)ccc2O1` [Compound 13], the maximum response (Emax) was above 100% and the EC50 is below 5 µM.

Turning to `CCc1cc(F)c(NC(=O)C2CNc3ccc(F)cc3O2)cc1O` (centres unmarked) [Compound 20], the Emax lay within 25 to 100% and the EC50 is below 5 µM.

As for `CC(C)(C)c1ccc(NC(=O)C2CNc3ccccc3S2)cc1O` (centres unmarked) [Compound 120, N-(4-tert-butyl-3-hydroxy-phenyl)-3,4-dihydro-2H-1,4-benzothiazine-2-carboxamide], the Emax is 25 to 100% and the EC50 is below 5 µM.

Regarding `CC(C)Oc1c(O)cccc1NC(=O)C1CNc2ccc(F)cc2O1` (centres unmarked) [Compound 112], the maximal effect (Emax) was 25 to 100% and the EC50 lay in the range of 5 to 20 µM.

As to `Cc1ccc(NC(=O)C2CNc3cc(OC(F)(F)F)ccc3O2)c(C#CCN2CCC(O)CC2)c1` (centres unmarked) [Compound 64], the Emax fell in the range of 25 to 100% and the EC50 is below 5 µM.

As to `CN1CCN(c2cc(C3CCCC3)c(O)cc2NC(=O)C2CNc3cc(C#N)ccc3O2)CC1` (centres unmarked) [Compound 29], the Emax was below 25% and the EC50 fell in the range of 5 to 20 µM.

For `N#Cc1cc(C2CCCC2)c(O)cc1NC(=O)[C@@H]1CNc2ccc(F)cc2O1` [Compound 50], the maximal effect (Emax) lay within 25 to 100% and the EC50 is below 5 µM.

Turning to `Cc1ccc(NC(=O)C2CNc3cc(OC(F)(F)F)ccc3O2)c(C#CCN2CCCC2)c1` (centres unmarked) [Compound 73], the Emax was 25 to 100% and the EC50 was below 5 µM.

Regarding `CS(=O)(=O)c1cc(C2CCCC2)c(O)cc1NC(=O)C1CNc2cc(OC(F)(F)F)ccc2O1` (centres unmarked) [Compound 105], the Emax was above 100% and the EC50 was 5 to 20 µM.

In the case of `CN(C)CC#Cc1cc(C2CCCC2)c(O)cc1NC(=O)C1CNc2cc(F)ccc2O1` (centres unmarked) [Compound 123], the Emax fell in the range of 25 to 100% and the concentration for a half-maximal effect (EC50) is below 5 µM.

In the case of `CC1(c2cc(F)c(NC(=O)C3CNc4ccc(F)cc4O3)cc2O)CCCCC1` (centres unmarked) [Compound 68], the Emax was in the range of 25 to 100% and the EC50 was below 5 µM.

Consider `CC1(c2cc(F)c(NC(=O)[C@@H]3CNc4ccccc4O3)cc2O)CCCCC1` [Compound 19], for which the Emax lay within 25 to 100% and the EC50 was below 5 µM.

Turning to `Cc1cc(C2CCCC2)c(O)cc1NC(=O)[C@H]1CNc2cc(C#N)ccc2O1` [Compound 88], the Emax is 25 to 100% and the EC50 was below 5 µM.

For `Cc1ccc(NC(=O)C2CNc3cc(OC(F)(F)F)ccc3O2)c(C#CCN2CCC(C(=O)O)CC2)c1` (centres unmarked) [Compound 69], the Emax was in the range of 25 to 100% and the EC50 lay in the range of 5 to 20 µM.

As to `CC(C)CC#Cc1cc(C2CCCC2)c(O)cc1NC(=O)C1CNc2cc(OC(F)(F)F)ccc2O1` (centres unmarked) [Compound 53], the Emax was 25 to 100% and the EC50 was below 5 µM.

For the molecule `N#Cc1ccc2c(c1)NCC(C(=O)Nc1cc(O)c(C3CCCC3)cc1C1=CCNCC1)O2` (centres unmarked) [Compound 11, 6-cyano-N-(4-cyclopentyl-5-hydroxy-2-(1,2,3,6-tetrahydropyridin-4-yl)phenyl)-3,4-dihydro-2H-benzo[b][1,4]oxazine-2-carboxamide], the maximal response (Emax) is 25 to 100% and the EC50 is 5 to 20 µM.

On to `CC1(c2cc(F)c(NC(=O)C3CNc4cc(OC(F)(F)F)ccc4O3)cc2O)CCCCC1` (centres unmarked) [Compound 108], for which the Emax was 25 to 100% and the EC50 was below 5 µM.

Consider `Cc1cc(CN2CCC(C)CC2)c(NC(=O)C2CNc3cc(OC(F)(F)F)ccc3O2)cc1O` (centres unmarked) [Compound 126], for which the maximum response (Emax) is above 100% and the EC50 is below 5 µM.
